Columns and labels:
[1] = biological target: human recombinant IRAK4 protein (Homo sapiens (Human), UniProt Q9NWZ3); experiment: IRAK4 enzyme assay (mass spectrometry readout); format: biochemical; conditions: 3 mM ATP, 0.2 nM enzyme; geometric mean of at least n=2, * single experiment
Description: Potency of IRAK4 Inhibitor Compounds in IRAK4 Enzyme Assay
The inhibitory activity of compounds against IRAK4 were determined in an enzymatic assay using mass spectrometry readout. Ten point half-log compound concentration response curves, with a top concentration of 1 μM or 10 μM, were generated from 10 mM stocks of compound solubilized in DMSO using an Echo 655 (Labcyte Inc) and added to 384 well assay plates (Greiner #781280). To the assay plates, 10 μL of human recombinant IRAK4 protein (Life Technologies #PV4002) diluted to a final concentration of 0.2 nM in assay buffer (50 mM Tris-HCl pH 7.4, 10 mM MgCl, 5 mM glutathione, 0.01% BSA, 3 mM ATP) was added. The enzyme was incubated with the compounds at room temperature for 15 minutes before a peptide substrate ([…], Innovagen custom synthesis, 10 mM in DMSO) was added to each well to a final concentration of 10 μM using an Echo 655 (Labcyte Inc). After two hours at room temperature, the reaction was stopped with 90 μL of 0.4% formic acid (Merck #33015). The unphosphorylated and phosphorylated peptide were measured by LC-MS/MS on a Waters TQ-S mass spectrometer. Peaks were integrated using the TargetLynx software and the ratios between phosphorylated and unphosphorylated peptides were calculated. Curves were fitted and compound potencies determined in Genedata Screener 15 (Genedata AG). Data presented are the geometric mean of at least n=2, or as denoted by an * are obtained from a single experiment.

[2] = biological target: IRAK4 auto-phosphorylation (Homo sapiens (Human), UniProt Q9NWZ3); experiment: IRAK4 phosphorylation cell assay in IL-1β-stimulated Karpas-299 cells; format: cell-based; conditions: IL-1β 22.7 ng/mL, pIRAK4 (Thr345/Ser346), geometric mean of at least 2 experiments
Description: IRAK4 Phosphorylation Cell Assay
The activation of IRAK4 by TLR or IL-1R ligands leads to IRAK4 auto-phosphorylation, which can be prevented by IRAK4 kinase inhibitors. The effect of IRAK4 inhibitor compounds on IRAK4 auto-phosphorylation was assessed in IL-1β-stimulated Karpas-299 cells as a measurement of cellular potency. Karpas-299 cells were cultured in RPMI 1640 (Gibco 61870-010) containing 10% FBS (Gibco #10270). Cells were plated at 2×10^4 cells per well in poly-D-lysine coated 384 well plates (Corning #356663) to which compounds had been added at various concentrations (10 point half log dose response with a final top concentration of 30 μM) using an Echo 655 (Labcyte Inc). Cells were centrifuged (250 g, 4 mins), incubated at 37° C. for 1 h, then stimulated with 22.7 ng/mL recombinant IL-1β (R&D Systems, #201-LB-025) at 37° C. for 10 mins, followed by fixation in 4% paraformaldehyde for 10 mins and permeabilization in ice-cold 70% MeOH for 30 mins. Cells were washed twice with phosphate-buffered saline (PBS) on a BlueWasher (BlueCatBio) then blocked with PBS containing 10% FBS for 20 mins. Blocking solution was removed with a BlueWasher and cells were stained with anti-pIRAK4 (Thr345/Ser346) (CST, #11927, 1:400) in blocking buffer with 0.05% Tween-20 for 1 h, then washed twice with PBS containing 0.05% Tween-20 on a BlueWasher, followed by staining with a Alexa 647-conjugated secondary anti-rabbit IgG antibody (CST, #4414, 1:2,000) and Hoechst 33342 (Sigma, 1:2,000) in blocking buffer with 0.05% Tween-20 for 30 mins. Finally, the cells were washed twice with PBS containing 0.05% Tween-20 and imaged on an ImageXpress Micro (Molecular Devices) with a 10× air objective using the appropriate filters. Images were analysed in Columbus (PerkinElmer) and the fluorescence intensity per cell from the secondary antibody was quantified. The quantified data were analysed in Genedata Screener 15 (Genedata AG). […] IC50 values are the geometric mean of at least 2 experiments.

Chain of human recombinant IRAK4 protein (Q9NWZ3 whole entry): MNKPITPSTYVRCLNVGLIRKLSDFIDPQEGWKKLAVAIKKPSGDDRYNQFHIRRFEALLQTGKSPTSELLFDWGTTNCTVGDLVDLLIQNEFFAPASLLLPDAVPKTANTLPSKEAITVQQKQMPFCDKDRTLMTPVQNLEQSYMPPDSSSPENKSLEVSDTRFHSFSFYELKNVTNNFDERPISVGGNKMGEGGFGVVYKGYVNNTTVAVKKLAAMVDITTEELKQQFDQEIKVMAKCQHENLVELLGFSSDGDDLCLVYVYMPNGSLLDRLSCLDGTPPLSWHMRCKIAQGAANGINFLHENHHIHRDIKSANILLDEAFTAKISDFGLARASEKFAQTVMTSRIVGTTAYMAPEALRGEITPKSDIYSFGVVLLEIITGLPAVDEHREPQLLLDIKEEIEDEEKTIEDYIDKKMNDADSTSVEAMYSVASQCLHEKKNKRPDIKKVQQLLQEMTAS
Chain of IRAK4 auto-phosphorylation (Q9NWZ3 whole entry): as above

| SMILES | IC50 [1] | IC50 [2] |
| --- | --- | --- |
| COc1cc2nn([C@H]3CCC[C@@H](O)C3)cc2cc1C(=O)Nc1cnc2cccnn12 (single isomer, unassigned) [Example 9] | 1.6 nM | 57 nM |
| CC(=O)N1CC2(CC[C@@H](n3cc4cc(C(=O)Nc5cnn6cccnc56)c(OC5CC5)cc4n3)[C@H](C)C2)C1 (single isomer, unassigned) [Example 28] | 3 nM | 161 nM |
| COc1cc2nn([C@@H]3CCC(N(C)C(C)=O)C[C@H]3C)cc2cc1C(=O)Nc1cnc2cccnn12 (single isomer, unassigned) [Example 36, N-(imidazo[1,2-b]pyridazin-3-yl)-6-methoxy-2-(1R,2R,4R*)-2-methyl-4-(N-methylacetamido)cyclohexyl)-2H-indazole-5-carboxamide] | 3.8 nM | 56 nM |
| C[C@H]1C[C@@H](O)CC[C@@H]1n1cc2cc(C(=O)Nc3cnn4cccnc34)c(OC3CC3)cc2n1 (single isomer, unassigned) [Example 44] | 0.8 nM | 42 nM |
| O=C(Nc1cnn2cccnc12)c1cc2cn(C3CCC4(CC3)CC(O)C4)nc2cc1OC1CC1 (single isomer, unassigned) [Example 46, 6-Cyclopropoxy-2-(2-hydroxyspiro[3.5]nonan-7-yl)-N-(pyrazolo[1,5-a]pyrimidin-3-yl)-2H-indazole-5-carboxamide] | 0.6 nM | 56 nM |
| O=C(Nc1cnn2cccnc12)c1cc2cn(C3CCC4(CC3)CC(O)C4)nc2cc1OC1CC1 (single isomer, unassigned) [Example 47, 6-Cyclopropoxy-2-(2-hydroxyspiro[3.5]nonan-7-yl)-N-(pyrazolo[1,5-a]pyrimidin-3-yl)-2H-indazole-5-carboxamide] | 0.5 nM | 64 nM |
| COc1cc2nn(C3CCC(C)(O)CC3)cc2cc1C(=O)Nc1cnc2cccnn12 (single isomer, unassigned) [Example 48, 2-(4-Hydroxy-4-methylcyclohexyl)-N-(imidazo[1,2-b]pyridazin-3-yl)-6-methoxy-2H-indazole-5-carboxamide] | 0.7 nM | 17 nM |
| COc1cc2nn(C3CCC(C)(O)CC3)cc2cc1C(=O)Nc1cnc2cccnn12 (single isomer, unassigned) [Example 49, 2-(4-Hydroxy-4-methylcyclohexyl)-N-(imidazo[1,2-b]pyridazin-3-yl)-6-methoxy-2H-indazole-5-carboxamide] | 6.1 nM | 46 nM |

Continued by falling IC50 [1], values first:

| IC50 [1] | IC50 [2] | SMILES |
| --- | --- | --- |
| 10 nM | 160 nM | COc1cc2nn([C@H]3CC[C@H](O)C[C@@H]3C)cc2cc1C(=O)Nc1cnn2cccnc12 (single isomer, unassigned) [Example 39] |
| 7.2 nM | 115 nM | COc1cc2nn([C@H]3CCC(N(C)C(C)=O)C[C@@H]3C)cc2cc1C(=O)Nc1cnc2cccnn12 (single isomer, unassigned) [Example 35, N-(imidazo[1,2-b]pyridazin-3-yl)-6-methoxy-2-((1S,2S,4R*)-2-methyl-4-(N-methylacetamido)cyclohexyl)-2H-indazole-5-carboxamide] |
| 3.4 nM | 84 nM | COc1cc2nn([C@H]3CCC[C@@](C)(O)C3)cc2cc1C(=O)Nc1cnn2cccnc12 (single isomer, unassigned) [Example 50] |
| 0.6 nM | 77 nM | CC1(O)CC2(CCC(n3cc4cc(C(=O)Nc5cnn6cccnc56)c(OC5CC5)cc4n3)CC2)C1 (single isomer, unassigned) [Example 16, 6-Cyclopropoxy-2-(2-hydroxy-2-methylspiro[3.5]nonan-7-yl)-N-(pyrazolo[1,5-a]pyrimidin-3-yl)-2H-indazole-5-carboxamide] |
| 0.5 nM | 91 nM | CC1(O)CC2(CCC(n3cc4cc(C(=O)Nc5cnn6cccnc56)c(OC5CC5)cc4n3)CC2)C1 (single isomer, unassigned) [Example 15, 6-Cyclopropoxy-2-(2-hydroxy-2-methylspiro[3.5]nonan-7-yl)-N-(pyrazolo[1,5-a]pyrimidin-3-yl)-2H-indazole-5-carboxamide] |
